Measured values: the NIST ThermoML archive (doi:10.1021/acs.jced.8b00771)
Numbers after ± are expanded uncertainties.

Test: molar heat capacity at constant pressure
Settings: 100 kPa, Extra sensitive DSC

CCn1cc[n+](C)c1.[Cl-] [1-ethyl-3-methylimidazolium chloride]
molar heat capacity at constant pressure (293.15 K, Crystal): 216.99 ± 12 J/K/mol
molar heat capacity at constant pressure (303.15 K, Crystal): 221.39 ± 12 J/K/mol
molar heat capacity at constant pressure (313.15 K, Crystal): 224.33 ± 12 J/K/mol
molar heat capacity at constant pressure (363.15 K, Liquid): 284.44 ± 13 J/K/mol
molar heat capacity at constant pressure (373.15 K, Liquid): 291.77 ± 13 J/K/mol
